The values below come from patent US8652836B2, “Defective ribosomal products in blebs (DRibbles) and methods of use to stimulate an immune response” (Providence Health System, priority 2005, dated 2014).

Data set [1] has as its system 293T tumor cells expressing V-GFP-TfR-OVA. In words: In vitro cross-presentation of treated tumor cells by DC to OT-I T cells (CFSE dilution). The following applies: tumor cells treated as in Example 2, irradiated; FIG. 3. It counts as cell-based, human. How it is done: (§1) The autophagy inhibitor […] (3-MA) and the autophagy inducer rapamycin were used to modulate autophagy and observe their effect on human 293T tumor cells expressing V-GFP-TfR-OVA fusion (a peptide containing mutated ubiquitin, GFP (green fluorescent protein), the transmembrane domain of transferrin receptor and chicken ovalbumin). In addition 10 mM NH4Cl was used to inhibit lysosome mediated protein degradation. Cells expressing V-GFP-TfR-OVA were either untreated, treated with 10 mM 3-MA for 24 hours, treated with 10 mM 3-MA and 1 μM Velcade for 24 hours, 50 nM rapamycin for 24 hours, 50 nM rapamycin and 1 μM Velcade for 24 hours, 10 mM NH4Cl for 24 hours, or with 1 μM Velcade and 10 mM NH4Cl for 24 hours. Cell lysates were prepared by resuspending pelleted cells in SDS containing sample lysis buffer and subjected to western blot analysis with anti-GFP antibody.
(§2) 293T tumor cells expressing V-GFP-TfR-OVA were treated as described in Example 2, and used as the source of antigens for cross-presentation in vitro after irradiation (15,000 rad). One million tumor cells were incubated with two million DC for 6 hours before the addition of CFSE labeled naïve T cells from OT-I transgenic mice that recognize peptides derived from OVA protein. The OT-I division as indicated by dilution of CFSE label was used as the readout.

The subject of data set [2] is human 293T tumor cells expressing V-GFP-TfR-OVA fusion. In words: Western blot of fusion protein with anti-GFP antibody. The data set is classed as cell-based. The settings on record: for full-length and short fragments of fusion proteins: 10 mM 3-MA, 1 μM Velcade, 10 mM NH4Cl, compared to untreated control cells. The method, then:
as §1

The test system of data set [3] is F10 melanoma cells. As to the kind of experiment: Secretion of DRibbles by tumor cells treated with proteasome inhibitor (microscopy). It counts as cell-based, mouse. The settings on record: 5 μg/ml, 24 hours; FIG. 1A. The method, then: To prepare tumor-derived DRibbles, one T-150 flask of cultured tumor cells at about 80% confluence (about 30 million cells per flask) were treated for 24 hours with reversible proteasome inhibitor MG132 (5 μg/ml) or ALLN (5 μg/ml) to block proteasome-mediated degradation of ubiquitinated proteins. […] Culture supernatant was collected in a 50 ml conical tube 48 hours later, and whole tumor cells and large cell debris removed by a low speed centrifugation (250 g for 10 minutes) (FIG. 1B). The resulting supernatant was further centrifuged at a high speed (10,000 g for 15 minutes) to pellet DRibbles. The pellets (containing the DRibbles, see FIG. 1C) were washed once by re-suspending in PBS (20 ml) and pelleting at high speed as above. The washed pellets were resuspended in 300 μl PBS (10 μl DRibble=1 million cells) and snap frozen in liquid nitrogen and kept at −80° C. in small aliquots until use.

The conditions of data set [4]: under refrigeration; cited from earlier work.
For data set [5] the following is noted: oral administration; cited from earlier work.
Data set [6] deals with RMA tumor cells. As to the kind of experiment: Priming of gag-specific CD8 T cells by RMA tumor cells, intracellular IFN-γ. It counts as in vivo, mice. The settings on record: RMA cells treated 5 μM 24 hours. How it is done: Seven days later, spleen cells were restimulated with either irrelevant D^b binding peptide or the dominant epitope of gag in the presence of blocker of ER/Golgi (brefeldin A) for 6 hours. The percentage of CD8 T cells produced intracellular IFN-γ was then determined by intracellular staining and flow cytometry analysis with antibodies against CD3, CD8, and IFN-γ.

Data set [7] has as its system 293T cell lines expressing GFP-OVA fusion proteins. As to the kind of experiment: Western blot of DRibble lysates. The data set is classed as cell-based, human. How it is done: Lysates (10 μg) were prepared from DRibbles generated from 293T cell lines expressing different versions of GFP-OVA fusion proteins after Velcade treatment. The lysates were probed with antibodies against GFP, LC3, calrecticulin, HSP90α (cytosolic), and ubiquitin.
A general note: In western blotting, separated proteins are transferred to a membrane and probed.

Data set [8] deals with LC3. In words: Western blot analysis of LC-3 (autophagy marker). It counts as cell-based, human. The settings on record: 1 μM overnight, 293T cells. The method, then:
To confirm whether Velcade induced autophagy, Western blot analysis of LC-3 was performed. LC3 is an autophagy marker; it converts from its LC3-I-nonlipidated form to the PE-conjugated form LC3-II. 293T were treated with 1 μM Velcade overnight and total cell lysates were subjected to Western blot analysis with anti-LC3 polyclonal antibody.

In data set [9] the test system is 293T cells expressing V-GFP-TfR-OVA fusion protein. In words: Western blot of fusion protein after HSP90 inhibitor and Velcade. It counts as cell-based, human. The settings on record: 1 μM Velcade 6 hours; 10 μM 17-AAD 16 hour.
For data set [10] the test system is unchanged. In words: Cross-presentation of HSP90 inhibitor treated cells. The data set is classed as cell-based, human. The following applies: Velcade added to 17-AAD treated cells. The method, then:
as §2
Cross-presentation is analyzed as described in Example 5.

In data set [11] the test system is 293T tumor cells. In words: Fluorescence microscopy of GFP-OVA / GFP-LC3 transfected cells. The data set is classed as cell-based, human. The settings on record: 1 μM. The method, then: 293T tumor cells were transfected with plasmids encoding Ub-M-GFP-OVA, GFP-LC3 fusion protein, or GFP-LC3 and tdTomato-Ub proteins. Transfected cells were treated with 1 μM Velcade 24 hours later. GFP-OVA or GFP-LC3 fusion proteins were used to visualize the antigens or autophagy membrane in the DRibbles using fluorescence microscopy. Co-tranfection of GFP-LC3 and tdTomato-Ub fusion plasmids was used to visualize accumulation of ubiquitinated DRiPs inside LC3 decorated DRibbles.

Square brackets hold non-standard residues; d marks the D form. Peptide text beside a SMILES is read from it. * marks the point of attachment. Nle = CCCC[C@H](N)C(=O)O; Cbz = O=C(OCc1ccccc1)*

Consider `Cl.N` [NH4Cl], for which the “cross-presentation (OT-I division, CFSE dilution)” value in data set [1] is recorded as “moderate increase of cross-presentation”. In addition, in data set [2] (24 hours), the “full-length and short fragments of fusion proteins” value was “even greater stabilizing effect of shorter fragments”. The “antigen / protein level detected by Western blot” value in data set [2] (as restated with the cross-presentation results) is given as “increased protein level”.
Regarding `CCCC[C@@H](C=O)NC(=O)[C@H](CC(C)C)NC(=O)[C@H](CC(C)C)NC(C)=O` [ALLN, N-Acetyl-Leu-Leu-norleucinal] (Ac-Leu-Leu-[Nle]-aldehyde), the “formation of prenuclear vacuoles and secretion of DRibbles” value in data set [3] is “induced formation of prenuclear vacuoles and secretion of DRiPs containing blebs (DRibbles)”.
Consider `O.O=P1(N(CCCl)CCCl)NCCCO1` (stereo not shown) [Cyclophosphamide, 2-[bis(2-chloroethyl)amino]tetrahydro-2H-1,3,2 oxazaphosphorine 2-oxide monohydrate], for which the “stability of reconstituted solution” value in [4] is reported as “six”. Besides, the bioavailability result in data set [5] is “greater than 75%”.
Regarding `Cn1cnc(=N)c2ncn([C@@H]3O[C@H](CO)[C@@H](O)[C@H]3O)c21` [3-MA, 3-methyladenosine], in data set [1], the “cross-presentation (OT-I division, CFSE dilution)” value is “severely curtailed”. For the same compound, the “full-length and short fragments of fusion proteins” value in data set [2] (24 hours) is “both full-length and short fragments of fusion proteins were increased”.
As for `CC(C)C[C@@H](C=O)NC(=O)[C@H](CC(C)C)NC(=O)[C@H](CC(C)C)NC(=O)OCc1ccccc1` [MG-132, carbobenzyloxy-L-leucyl-L-leucyl-L-leucinal] (Cbz-Leu-Leu-Leu-aldehyde), the “percentage of IFN-γ-producing CD8 T cells, background” value in data set [6] (background) amounted to 0.29%. Further, the “percentage of IFN-γ-producing CD8 T cells” value in [6] (spleen cells seven days later restimulated with dominant epitope of gag) turned out to be 1.74%.
As for `CC(C)C[C@H](NC(=O)[C@H](Cc1ccccc1)NC(=O)c1cnccn1)B(O)O` [Velcade, N-pyrazinecarbonyl-L-phenylalanine-L-leucineboronic acid], the “GFP-OVA fusion protein in DRibbles” value in data set [7] is reported as “resulted in large amount GFP-OVA fusion protein in the DRibbles”. The “autophagy induction (LC3-I and LC3-II)” value in data set [8] is listed as “induced autophagy in 293T cells”. For the same compound, the “short-fragments of GFP-TfR-OVA fusion proteins” value in data set [9] was “dramatically increased”. Besides, in [10], the DRiPs and cross-presentation result is “rescued DRiPs but not cross-presentation”. For the same compound, the “formation of punctate structures” value in data set [11] is given as “led to formation of cell-associated punctate positive for GFP-OVA or GFP-LC3”. Moreover, in data set [2] (1 μM Velcade in the presence of 50 nM rapamycin, 24 hours), the “amount of short fragments” value is given as “slightly increased the amount of short fragments”.
